Test results: patent US9872928B2, “Diagnostic agent for therapeutic effect on cancer” (HAMAMATSU PHOTONICS K.K., priority 2013, dated 2018)

Key:
[1] = tested on: SCCVII cells tumor tissue; assay: Judgment of effect of cancer therapy using PET measurement in cancer-bearing mice after X-ray irradiation; format: in vivo, mouse
Description: When the tumor volume reached about 100 mm^3, a cancer therapy using irradiation with an X-ray was performed to a tumor site of a mouse at a dose ratio of 1.2 Gy/minute using an apparatus which can perform irradiation with an X-ray having an energy of 250 keV (Hitachi Power Solutions MBR-1520R-3). As conditions of irradiation with X-ray, four conditions of non-irradiation (0 Gy, control), 6 Gy, 15 Gy, and 30 Gy were set. Also after the irradiation treatment, the tumor volume was regularly measured according to the above method.
Two days and seven days after irradiation with X-ray, a mouse with a tumor tissue (cancer-bearing mouse) was anesthetized by isoflurane gas. Thereafter, four mice were fixed at one time in a gantry of an animal PET camera (HAMAMATSU SHR-38000). For absorption correction, transmission measurement was performed using a ^68Ge-^68Ga calibration-ray source for 15 minutes. Thereafter, about 5 MBq/0.2 mL of [^18F]BCPP-EF was administered into a tail vein of a mouse, and dynamic emission measurement was performed for 60 minutes. FIG. 3 illustrates a PET image showing an effect of the radiation therapy in the tumor tissue of a mouse.
After the PET measurement was finished, each of the mice was moved to a small animal X-CT (SHIMADZ Clairvivo CT) with a fixed stand while being anesthetized, and CT measurement was performed for ten minutes. A form image (X-CT image) obtained by the CT measurement was collected, a PET accumulated image 40 to 60 minutes after administration of [^18F]BCPP-EF was superimposed on the X-CT image, and a PET image of a cancer tissue was identified.
An interest region was set on the PET image of the cancer tissue, and a value normalized with a body weight of an individual and an administration radiation dose was used as an accumulation amount of [^18F]BCPP-EF in the cancer tissue. The results are illustrated in FIG. 4.

[2] = tested on: mitochondria Complex-1; assay: Evaluation of binding affinity with respect to mitochondria Complex-1 (displacement of [3H]dihydrorotenone tracer from mitochondrial fraction); parameters: species or system rat (brain) and bull (heart); conditions: FIG. 1
Description: A dose-response curve of each of a TEST substance and a positive substance was created, and a concentration (IC50 value) at which the TEST substance and the positive substance suppress 50% of bonding between a tracer and mitochondrial Complex-1 (receptor) and an absolute inhibition constant (Ki) were calculated. As the TEST substance, [^18F]BMS-747158-02 (2-tert-butyl-4-chloro-5-[4-(2-fluoro-ethoxymethyl)-benzyloxy]-2H-pyri dazin-3-one, hereinafter also referred to as “BMS”), BCPP-EF, BCPP-BF, BCPP-PF, BCPP-EM, and BMS-P were used. The details will be described below.
An animal tissue was weighed (wet weight), a homogenization buffer solution (10 mmol/L Tris-HCl buffer solution (pH, 7.40) of 250 mmol/L sucrose, 1 mmol/L succinic acid, and 0.2 mmol/L EDTA) was added in an amount twice the amount of the animal tissue, and the mixture was homogenized under ice cooling. Thereafter, the homogenized suspension solution was centrifuged (1200×g, 4° C., 20 minutes). The supernatant was collected and centrifuged (26000×g, 4° C., 15 minutes). […] The protein concentration of the mitochondrial fraction was measured using BCA Protein Assay Reagent (manufactured by Pierce Companies). […]
Measurement was performed according to the following order. Two samples were prepared for each concentration, and each sample was measured three times. […]

| SMILES | accumulation in the tumor tissue (PET) as the irradiation dose was increased ([1]; X-ray 0, 6, 15, 30 Gy, FIGS. 3 and 4) | accumulation in the tumor tissue (PET) ([1]; before the radiation therapy, tail vein administration) | increase in accumulation in proportion to the radiation dose, duration ([1]; seven days after irradiation with radiation, FIGS. 3 and 4) | accumulation in the tumor tissue (PET) ([1]; two days after irradiation with radiation, PET image 40 to 60 minutes after administration) | affinity with respect to mitochondria Complex-1 ([2]; suggested from dose-response curve) | IC50 (concentration suppressing 50% of bonding between tracer and mitochondrial Complex-1), comparison in words ([2]; tracer dihydrorotenone[2-isopropyl-3H(N)], 22° C., 30 minutes) |
| --- | --- | --- | --- | --- | --- | --- |
| CC(C)(C)n1ncc(OCc2ccc(OCCOCC[18F])nc2)c(Cl)c1=O [[^18F]BCPP-EF] | increase in accumulation | not observed | continued until seven days after irradiation | increased | – | – |
| CC(C)(C)n1ncc(OCc2ccc(OCCCCF)nc2)c(Cl)c1=O [BCPP-BF] | – | – | – | – | high affinity | lowest IC50 |
